Key:
[1] = test system: loperamide-induced constipation in mice; assay: Loperamide model of constipation; format: in vivo, mouse; settings: 10 mg/kg, oral, stool collected over 3 hours
Method: Wild-type CD1 mice were administered loperamide (0.3 mg/kg, intraperitoneally) in PBS containing 5% ethanol (0.1 mg/mL final concentration) to induce constipation ([9], [30]). PAT1inh-B01 and DRAinh-A270, individually or together (10 mg/kg each, in saline containing 5% DMSO and 10% Kolliphor HS 15), or vehicle control were administered by oral gavage 1 hour before loperamide. After loperamide injection mice were placed individually in metabolic cages with free access to food and water. Stool samples were collected for 3 hours, and total stool weight and number of fecal pellets were quantified. To measure stool water content, stool samples were dried at 80°C for 24 hours and water content was calculated as follows: (wet weight – dry weight)/wet weight ([9], [30]).

slc26a1 = molecular target: T1, slc26a1 (Mus musculus, UniProt P58735); assay: Selectivity: Cl-/I- exchange in 293T/17 cells transfected with slc26a1 and YFP; format: cell-based; settings: 25 μM, 10 min preincubation
T1 construct: expressed in transfected cells; host or cells: 293 T/17 cells, transient transfection with pIRES-HIF vector (IRES-YFP, not fused)
T1 sequence (P58735 1-704): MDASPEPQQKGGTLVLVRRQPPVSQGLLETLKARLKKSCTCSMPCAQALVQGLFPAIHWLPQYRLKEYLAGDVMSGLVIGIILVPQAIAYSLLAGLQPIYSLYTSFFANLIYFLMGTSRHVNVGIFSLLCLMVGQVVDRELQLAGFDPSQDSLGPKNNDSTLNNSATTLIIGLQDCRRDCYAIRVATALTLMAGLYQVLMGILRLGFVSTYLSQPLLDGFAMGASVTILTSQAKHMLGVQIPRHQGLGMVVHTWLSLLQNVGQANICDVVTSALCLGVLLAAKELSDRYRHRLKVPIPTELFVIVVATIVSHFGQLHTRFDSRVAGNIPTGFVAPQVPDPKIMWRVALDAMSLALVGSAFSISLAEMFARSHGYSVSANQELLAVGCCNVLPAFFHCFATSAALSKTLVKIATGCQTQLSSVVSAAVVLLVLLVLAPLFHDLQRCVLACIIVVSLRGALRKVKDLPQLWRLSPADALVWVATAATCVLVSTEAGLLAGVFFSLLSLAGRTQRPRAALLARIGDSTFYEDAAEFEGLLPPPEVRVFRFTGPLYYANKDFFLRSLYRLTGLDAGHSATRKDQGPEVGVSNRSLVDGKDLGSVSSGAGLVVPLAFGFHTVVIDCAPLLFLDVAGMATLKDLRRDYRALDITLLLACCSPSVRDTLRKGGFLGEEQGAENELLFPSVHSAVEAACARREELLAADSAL
Method: YFP-based cellular assays of slc26a3, slc26a4, SLC26A9, and TMEM16A function were performed as described previously ([7]). Slc26a1 and slc26a2 assays were done in transfected HEK 293 cells (see Supplemental Methods for details). Niflumic acid was used as a positive control for SLC26A isoforms ([7]). For TMEM16A, the selective small-molecule inhibitor TMinh-23 was used as a positive control ([28]). The activities of ENaC, CFTR, and CaCC were determined using well-differentiated HBE cells as described previously ([13]). Cl^–/HCO3^– exchange was measured as described previously ([7], [10], [11]). Briefly, cell cytoplasm was labeled with the pH-sensitive fluorescent dye BCECF-AM (Invitrogen), and Cl^–/HCO3^– exchange was measured in response to addition of a gluconate-containing solution to drive exchange of cytoplasmic Cl^– for extracellular HCO3^–, producing cytoplasmic alkalinization.
Slc26a1 and slc26a2 cDNA constructs
The complementar y DNA sequences of slc26a1 and slc26a2 were generated using gB LOCK gene fragments (Int egrat ed DNA technology, Coralville, IA) in the plasmid vector pIRESpuro3 (Takara, San J ose, CA). […]
PBS. […] Background-corrected, area-integrat ed single cell fluorescence was calcul ated for determination of slc26a1 / slc26a2 activit y from the rate of fluorescence quenching. […]

Structure (SMILES): Cc1c(Br)c(C(F)(F)F)nn1CC(=O)N1CCc2nc3cc(-c4ccccc4)[nH]n3c(=O)c2C1 [PAT1inh-B01]
- effect on stool parameters (weight, number of pellets, water content) [1]: did not affect
- effect on slc26a1 activity (slc26a1): did not affect
